Data on nine molecules can be found in ChEMBL document CHEMBL4152361, “Synthesis of oxidative metabolites of CRA13 and their analogs: Identification of CRA13 active metabolites and analogs thereof with selective CB2R affinity” (Bioorg Med Chem, 2018).

Structures are written as SMILES. pIC50: −log10 of the molar value. A value given as a limit tells only on which side of the number the result lay.

Test [1] addresses T1, Cannabinoid receptor 1 (Homo sapiens, UniProt P21554). The experiment in a line: Displacement of [3H]SR141716A from membrane bound human CB1 receptor after 1 hr by beta scintillation counting method.
The species entered for test [2] is Homo sapiens. As to the kind of experiment: Selectivity ratio of IC50 for displacement of [3H]SR141716A from membrane bound human CB1 receptor to IC50 for displacement of [3H]CP55940 from membrane bound human CB2 receptor. (In general: In a radioligand displacement assay an active substance lowers the binding of a labelled ligand.)
Test [3] is filed under the species Homo sapiens. As to the kind of experiment: Selectivity ratio of compound effect for displacement of [3H]CP55940 from membrane bound human CB2 receptor at 10 uM to compound effect for displacement of [3H]SR141716A from membrane bound human CB1 receptor at 10 uM.
The target in test [4] is T2, Cannabinoid receptor 2 (Homo sapiens, UniProt P34972). The experiment in a line: Displacement of [3H]CP55940 from membrane bound human CB2 receptor at 10 uM after 1 hr by beta scintillation counting method relative to control.
T2 sequence (P34972 whole entry): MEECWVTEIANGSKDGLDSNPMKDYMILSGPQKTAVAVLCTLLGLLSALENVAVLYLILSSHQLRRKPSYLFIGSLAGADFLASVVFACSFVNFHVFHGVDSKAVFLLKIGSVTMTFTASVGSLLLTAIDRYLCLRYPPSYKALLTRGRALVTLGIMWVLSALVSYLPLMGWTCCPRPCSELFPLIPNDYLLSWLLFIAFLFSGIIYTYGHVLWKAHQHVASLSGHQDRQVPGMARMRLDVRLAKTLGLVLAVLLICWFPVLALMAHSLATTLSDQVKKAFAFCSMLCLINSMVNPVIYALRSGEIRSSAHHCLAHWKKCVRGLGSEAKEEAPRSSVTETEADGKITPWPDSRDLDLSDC
Test [5] addresses T1, Cannabinoid receptor 1. As to the kind of experiment: Displacement of [3H]SR141716A from membrane bound human CB1 receptor at 10 uM after 1 hr by beta scintillation counting method relative to control.
Test [6] addresses T2, Cannabinoid receptor 2. The experiment in a line: Displacement of [3H]CP55940 from membrane bound human CB2 receptor after 1 hr by beta scintillation counting method.
Test [7] concerns the target T1, Cannabinoid receptor 1. As to the kind of experiment: Displacement of [3H]SR141716A from membrane bound human CB1 receptor at 100 uM after 1 hr by beta scintillation counting method relative to control.
In test [8] the target is T2, Cannabinoid receptor 2. The experiment in a line: Displacement of [3H]CP55940 from membrane bound human CB2 receptor at 100 uM after 1 hr by beta scintillation counting method relative to control.
For test [9], the species on record is Homo sapiens. The experiment in a line: Selectivity ratio of compound effect for displacement of [3H]SR141716A from membrane bound human CB1 receptor at 100 uM to compound effect for displacement of [3H]CP55940 from membrane bound human CB2 receptor at 100 uM.

T1 sequence (P21554 whole entry): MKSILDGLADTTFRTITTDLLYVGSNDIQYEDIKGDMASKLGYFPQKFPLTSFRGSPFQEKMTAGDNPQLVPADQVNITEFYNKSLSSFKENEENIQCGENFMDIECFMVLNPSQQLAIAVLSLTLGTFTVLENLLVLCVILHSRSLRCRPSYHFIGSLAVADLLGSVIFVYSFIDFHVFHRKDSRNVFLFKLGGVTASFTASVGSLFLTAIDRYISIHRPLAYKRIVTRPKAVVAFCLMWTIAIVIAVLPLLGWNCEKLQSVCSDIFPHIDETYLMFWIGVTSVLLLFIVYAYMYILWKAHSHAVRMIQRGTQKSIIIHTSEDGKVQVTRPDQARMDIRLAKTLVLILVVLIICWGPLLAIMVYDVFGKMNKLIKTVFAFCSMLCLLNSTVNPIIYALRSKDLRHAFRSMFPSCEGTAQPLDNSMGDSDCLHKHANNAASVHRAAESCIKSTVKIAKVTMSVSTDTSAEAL

As for `O=C(O)CCCCOc1ccc(C(=O)c2cccc3ccccc23)c2ccccc12`, the pIC50 (in general, the IC50 on a negative log10 scale, so that one unit is a factor of ten) was < 4.00 on Cannabinoid receptor 1 [1] and 4.90 at Cannabinoid receptor 2 [6]. Moreover, the Ratio IC50 in the test filed under Homo sapiens [2] is > 7.92. In addition, the Selectivity ratio in the test filed under Homo sapiens [3] is 2.81. Moreover, the inhibition (in general, the drop in the measured response relative to a control, in per cent) worked out at 36.6% at Cannabinoid receptor 2 [4], 13% on Cannabinoid receptor 1 [5], 20.5% at Cannabinoid receptor 1 [7] and 52.1% on Cannabinoid receptor 2 [8].
As for `O=C(c1cccc2ccccc12)c1ccc(OCCCCO)c2ccccc12`, the results for the pIC50 on Cannabinoid receptor 1 [1] and on Cannabinoid receptor 2 [6] were 4.75 and 5.30, respectively. Further, the Ratio IC50 in the test filed under Homo sapiens [2] was determined as 3.55. Further, the Selectivity ratio in the test filed under Homo sapiens [3] was 2.93. In addition, the inhibition at Cannabinoid receptor 2 [4] was found to be 91.7%; at Cannabinoid receptor 1 [5], 31.2%; on Cannabinoid receptor 1 [7], 72%; on Cannabinoid receptor 2 [8] it was 89.9%.
Turning to `COC(=O)CCCCOc1ccc(C(=O)c2cccc3ccccc23)c2ccccc12`, the pIC50 at Cannabinoid receptor 1 [1] is < 4.00; on Cannabinoid receptor 2 [6], 4.32. Moreover, in the test filed under Homo sapiens [2], the Ratio IC50 is > 2.1. Further, the Selectivity ratio in the test filed under Homo sapiens [3] turned out to be 2.69. Moreover, the inhibition on Cannabinoid receptor 2 [4] worked out at 11.9%; at Cannabinoid receptor 1 [5] it was 4.44%; at Cannabinoid receptor 1 [7], 36.5%; on Cannabinoid receptor 2 [8] it was 85.6%.
Turning to `O=C(c1cccc2ccccc12)c1ccc(OCCCO)c2ccccc12`, the results for the pIC50 on Cannabinoid receptor 1 [1] and on Cannabinoid receptor 2 [6] were 4.00 and 4.83, respectively. Further, the Ratio IC50 in the test filed under Homo sapiens [2] came to 6.81. In the test filed under Homo sapiens [3], the Selectivity ratio amounted to 1.76. Further, the inhibition at Cannabinoid receptor 2 [4] came out at 37.4%; on Cannabinoid receptor 1 [5] it was 21.3%; on Cannabinoid receptor 1 [7], 55.6%; on Cannabinoid receptor 2 [8], 78.5%.
`O=C(O)CCCOc1ccc(C(=O)c2cccc3ccccc23)c2ccccc12`: the pIC50 on Cannabinoid receptor 1 [1] and at Cannabinoid receptor 2 [6] was < 4.00 each time. Moreover, the Selectivity ratio in the test listed under Homo sapiens [9] stood at 2.99. Moreover, the inhibition at Cannabinoid receptor 1 [7] was 16%; at Cannabinoid receptor 2 [8], 5.36%.
For the molecule `COC(=O)CCCOc1ccc(C(=O)c2cccc3ccccc23)c2ccccc12`, the pIC50 at Cannabinoid receptor 1 [1] is 4.85; at Cannabinoid receptor 2 [6], 5.77. In addition, the Ratio IC50 in the test listed under Homo sapiens [2] came to 8.36. In the test listed under Homo sapiens [3], the Selectivity ratio is 2.25. Further, the inhibition is 96.9% at Cannabinoid receptor 2 [4], 43.1% at Cannabinoid receptor 1 [5], 68.8% at Cannabinoid receptor 1 [7] and 101% at Cannabinoid receptor 2 [8].
As to `O=C(c1cccc2ccccc12)c1ccc(OCCCCCO)c2ccccc12`, the pIC50 at Cannabinoid receptor 1 [1] is < 5.00; on Cannabinoid receptor 2 [6], 5.97. Moreover, the Ratio IC50 in the test filed under Homo sapiens [2] was > 9.26. Also, in the test listed under Homo sapiens [3], the Selectivity ratio was 2.1. Further, the inhibition on Cannabinoid receptor 2 [4] came to 75.3%; at Cannabinoid receptor 1 [5], 35.8%.
As for `O=C(c1cccc2ccccc12)c1ccc(OCCCCCCO)c2ccccc12`, the pIC50 on Cannabinoid receptor 1 [1] and on Cannabinoid receptor 2 [6] was < 5.00 each time. Further, the Selectivity ratio in the test filed under Homo sapiens [3] turned out to be 1.1. Further, the inhibition was found to be 46.9% at Cannabinoid receptor 2 [4] and 42.6% on Cannabinoid receptor 1 [5].
`CCCCCOc1ccc(C(=O)c2cccc3ccccc23)c2ccccc12`: the inhibition at Cannabinoid receptor 2 [4] and at Cannabinoid receptor 1 [5] was 64.2% throughout. The molecule further gave a pIC50 on Cannabinoid receptor 2 [6] of 5.28.
